Measured values as given in patent US20200093764A1, “TREATMENT OF ASTHMA WITH CYSTEAMINE” (CHILDREN'S HOSPITAL MEDICAL CENTER, priority 2017, published 2020).

Experiments:
Assay type in all cases: in vivo
WT BALB/c mice [1] = experiment: Lower doses of cysteamine (Cystagon) to block allergen-induced asthma exacerbation (Example 3)
Experimental: Control mice underwent 9 intratracheal challenges to saline instead. Once asthma was established, a subset of mice received cysteamine (e.g., Cystagon®, which corresponds to cysteamine bitartrate) at various doses (6.25, 12.5, 25, or 50 mg/kg) or saline vehicle intraperitoneal (i.p.) treatment 3 times every day for 2 weeks. On the 14th day, all mice received a single HDM recall challenge. Mice received scheduled i.p. treatment prior to airway responsiveness measurement.
(§1) To determine the effectiveness of the treatment, airway responsiveness was measured as follows. 24 hours after the last challenge invasive measurements were made with the FlexiVent apparatus (SCIREQ). Dynamic resistance was assessed after exposure to increasing concentrations of aerosolized methacholine (0, 6.25, 12.5, 25, and 50 mg/kg).
(§2) To observe Th2/Th17 cytokine production, lung cells were ex vivo stimulated with phorbol 12-myristate 13-acetate (PMA)+ionomycin (0.05 μg/mL and 0.50 μg/mL, respectively) for an hour prior to the addition of Brefeldin-A for an additional 2.5 hours. Cells were stained with combinations of CD4-FITC, γδT-cell receptor-PE/Cy7, CD3-AF700, CD44-Pacific Blue, and Live/dead-BV510. After fixation and premeabilization cells were intracellularly stained with IL-13-PE, IL-17A-AF647, IFN-γ-PerCP5.5. Image and data acquisition was done on a FACSCanto III and analyzed with FlowJo software.

[2] = tested on: WT BALB/c and VNN1 KO mice; experiment: Prophylactic cysteamine treatment in HDM-challenged experimental asthma model (Example 1); details: for asthma development: cysteamine hydrochloride 50 mg/kg i.p. every day, HDM 25 μg i.t. 3 times a week for 3 weeks; for airway hyper-responsiveness (AHR) development: mice, oral or IP administration, methacholine challenge, FlexiVent dynamic resistance
Description: Steroid non-responsive mice (e.g., vanin 1 (VNN1) knock-out (KO) mice) and normal mice (e.g., wild type (WT) BALB/c mice) were used in an experimental asthma model. Since VNN1 KO mice lack tissue cysteamine, these mice were used to determine whether replacement of cysteamine would be sufficient to restore responsiveness to a steroid treatment.
WT BALB/c and VNN1 KO mice were started on cysteamine replacement treatment (e.g., as illustrated in FIG. 1A) one day prior to the start of intratracheal (i.t.) challenges. Mice then received one intraperitoneal (i.p.) injection of cysteamine hydrochloride (50 mg/kg) or saline every day. Mice were challenged 3 times a week for 3 weeks to an allergen (e.g., house dust mite (HDM, 25 μg in 50 μl saline)) or saline. A subset of mice from each group received a corticosteroid (e.g., dexamethasone (3 mg/kg)) treatment during the last 4 days of the experiment.
To determine the effectiveness of the treatment, airway responsiveness was measured as follows. 24 hours after the last challenge, invasive measurements were made with the FlexiVent apparatus (SCIREQ). Mice were anesthetized with ketamine, xylazine, and acepromazine (100, 20, and 10 mg/mL, respectively, mixed at a ratio of 4:1:1). Mouse tracheas were cannulated with a 19-gauge blunt needle, and the mice were ventilated at 150 breaths/min and 3.0 cm H2O positive end-expiratory pressure. Two total lung capacity perturbations were then performed for airway recruitment before baseline measurement, and subsequent methacholine challenges were performed. Dynamic resistance was assessed after exposure to increasing concentrations of aerosolized methacholine (0, 12.5 and 25 mg/mL). The average of the 3 highest dynamic resistance values with a coefficient of determination of 0.9 or greater (as determined by using FlexiVent software) was used to determine the dose-response curve.

WT BALB/c mice [3] = experiment: Oral cysteamine treatment in HDM-induced asthma with recall challenge (Example 6)
Experimental: Control mice underwent 9 intratracheal challenges to saline instead. Once asthma was established, a subset of mice received cysteamine (6.25 or 12.5 mg/kg) or saline vehicle oral treatment 4 times a day for 2 weeks. On the 14th day, all mice received a single HDM recall challenge. Mice received scheduled oral treatment prior to airway responsiveness measurement. To determine the effectiveness of the treatment, airway responsiveness was measured as follows. 24 hours after the last challenge invasive measurements were made with the FlexiVent apparatus (SCIREQ). Dynamic resistance was assessed after exposure to increasing concentrations of aerosolized methacholine (0, 6.25, 12.5, 25, and 50 mg/kg). Bronchoalveolar lavage was performed by means of tracheal cannulation. Lungs were lavaged with 1 mL of 1×HBSS. The collected BALF was centrifuged, and total cell numbers counted with a hemocytometer. Lungs were removed, and the upper right lobe was minced and incubated at 37° C. for 30 minutes in 1 mL of RPMI 1640 containing Liberase TL (0.5 mg/mL) and DNAse I (0.5 mg/mL). Lung cells were passed through a 70-μm cell strainer with a syringe rubber, and the strainer was washed with 5 mL of RPMI plus DNAse I media. Cells were centrifuged and re-suspended in 1 mL of PBS plus 0.5% BSA plus 2 mmol/L EDTA before being counted on a hemocytometer.

[4] = Drug kinetics of cysteamine in mouse serum (Example 4)
Description: FIG. 4A is a table showing drug kinetics in mouse serum after administration of cysteamine. FIG. 4B is a chart showing the cysteamine concentrations in μmol/L over the time after the ends of cysteamine infusion in minutes.

WT BALB/c mice [5] = experiment: Cysteamine vs. corticosteroid (dexamethasone) in HDM-induced asthma (Example 5)
Experimental: WT BALB/c mice underwent 6 intratracheal challenges to an allergen (e.g., HDM (25 μg)) to induce asthma development. Control mice underwent 6 intratracheal challenges to saline instead. When asthma was established, a subset of mice received cysteamine (50 mg/kg) treatment for seven days (on challenge days, mice received treatment 30 minutes prior to challenge). A subset of mice received corticosteroid (e.g., dexamethasone) treatment (3 mg/kg) during the last four days.
as §1, with “challenge,” for “challenge”, “(0,” for “(0, 6.25,”, “12.5,” for “12.5, 25,”
as §2, with “[…],” for “μg/mL,”, “two and a half” for “2.5”

WT BALB/c mice [6] = experiment: Cysteamine therapeutic treatment after HDM-induced asthma is established (Example 2); details: cysteamine 50 mg/kg for seven days
Experimental: WT BALB/c mice underwent 6 intratracheal challenges to an allergen (e.g., HDM (25 μg)) to induce asthma development. Control mice underwent 6 intratracheal challenges to saline instead. The next day a subset of mice received cysteamine (50 mg/kg) treatment for seven days (on challenge days, mice received treatment 30 minutes prior to challenge). See FIG. 2A for the treatment and challenge protocol. The mice were sacrificed 24 hours after the last challenge.
as §1, with “challenge,” for “challenge”, “([…]” for “(0,”, “[…]” for “12.5, 25,”, “[…]” for “50”
Bronchoalveolar lavage was performed by means of tracheal cannulation. Lungs were lavaged with 1 mL of 1×HBSS. The collected BALF was centrifuged, and total cell numbers were counted with a hemocytometer. Cells were spun onto slides and stained with the HEMA3 stain set. After the slides were cover slipped and de-identified, 200 cells were counted, and the total number of each cell type was calculated.
as §2, with “observe Th2, Th17, and Th1” for “observe Th2/Th17”, “[…],” for “0.50 μg/mL,”, “and permeabilization” for “and premeabilization”, “Image an” for “Image and”

[7] = mice with asthma, Cystagon i.p. for 2 weeks

NCCS [Cysteamine, 2-aminoethanethiol]
reducing AHR (WT BALB/c mice [1]; 6.25 mg/kg dose, Cystagon i.p. for 2 weeks, HDM recall challenge): effective at reducing AHR
dose at which maximal effectiveness on AHR was achieved (WT BALB/c mice [1]; Cystagon i.p. for 2 weeks, doses tested 6.25, 12.5, 25, 50 mg/kg): 12.5 mg/kg/day
presence of eosinophils and neutrophils in the bronchoalveolar lavage fluid (WT BALB/c mice [1]; cysteamine at 6.25, 12.5, and 50 mg/kg, i.p. for 2 weeks): significantly decreased the presence of eosinophils and neutrophils
blocking AHR (WT BALB/c mice [1]; mice with asthma (9 i.t. HDM), Cystagon (cysteamine bitartrate) 6.25-50 mg/kg i.p. 3 times every day for 2 weeks, HDM recall challenge): effective at blocking AHR
airway inflammation (WT BALB/c mice [1]; [7]): reduced airway inflammation
presence of pathogenic T effector populations (Th2/Th17) in the lungs (WT BALB/c mice [1]; [7]): significantly decreased the presence of pathogenic T effector populations (Th2/Th17)
asthma development ([2]; VNN1 KO mice): significantly prevented asthma
airway hyper-responsiveness (AHR) development [2]: blocked airway hyper-responsiveness (AHR) development
asthma development ([2]; normal (WT BALB/c) mice): significantly prevented asthma
AHR (WT BALB/c mice [3]; WT mice with asthma (9 i.t. HDM), cysteamine 6.25 or 12.5 mg/kg oral 4 times a day for 2 weeks, HDM recall challenge): decreased AHR
airway inflammation (BALF counts, lung cells) (WT BALB/c mice [3]; WT mice with asthma, cysteamine 6.25 or 12.5 mg/kg oral 4 times a day for 2 weeks): decreased
oral treatment compared with IP injection (WT BALB/c mice [3]; oral cysteamine 6.25 or 12.5 mg/kg 4 times a day for 2 weeks): equivalent to IP injection
cysteamine concentration in mouse serum in the time after infusion ended ([4]; mouse serum, after end of cysteamine infusion): rapidly degraded
half-life ([4]; stated in Example 3 results as reason for q.i.d. dosing): short half-life
AHR (WT BALB/c mice [5]; WT mice with asthma (6 i.t. HDM), cysteamine 50 mg/kg for seven days): decreased AHR
presence of Th1, Th2, and Th17 cells in the lungs (WT BALB/c mice [5]; WT mice, cysteamine 50 mg/kg for seven days): significantly decreased the presence of Th1, Th2, and Th17 cells
difference between the cysteamine and dexamethasone treatment groups (WT BALB/c mice [5]; cysteamine 50 mg/kg seven days vs dexamethasone 3 mg/kg last four days): no significant differences
asthma occurrence (WT BALB/c mice [6]; mice with asthma (6 i.t. HDM challenges)): significantly decrease asthma occurrence
airway inflammation (WT BALB/c mice [6]; mice with asthma): reduced airway inflammation
presence of eosinophils and neutrophils in the bronchoalveolar lavage fluid (WT BALB/c mice [6]; mice with asthma): decreased the presence of eosinophils and neutrophils
presence of pathogenic T effector populations (Th2/Th17) in the lungs (WT BALB/c mice [6]; mice with asthma, flow cytometry after PMA+ionomycin): reduction in the presence of pathogenic T effector populations (Th2/Th17)
airway hyper-responsiveness (AHR) development (WT BALB/c mice [6]; mice with asthma, methacholine challenge): blocked airway hyper-responsiveness (AHR) development

NCCSSCCN [cystamine]
airway hyper-responsiveness (AHR) development [2]: blocked airway hyper-responsiveness (AHR) development
